According to ChEMBL document CHEMBL1129888, “Synthesis and evaluation of halogenated dibenzodiazepines as muscarinic receptor ligands” (Bioorg Med Chem Lett, 1997):

How the values were obtained:
[1] = biological target: T1, Muscarinic acetylcholine receptor M1 (Homo sapiens, UniProt P11229); test: Tested in vitro for the binding affinity against muscarinic receptor subtype 1 (M1)
T1 sequence (P11229 whole entry): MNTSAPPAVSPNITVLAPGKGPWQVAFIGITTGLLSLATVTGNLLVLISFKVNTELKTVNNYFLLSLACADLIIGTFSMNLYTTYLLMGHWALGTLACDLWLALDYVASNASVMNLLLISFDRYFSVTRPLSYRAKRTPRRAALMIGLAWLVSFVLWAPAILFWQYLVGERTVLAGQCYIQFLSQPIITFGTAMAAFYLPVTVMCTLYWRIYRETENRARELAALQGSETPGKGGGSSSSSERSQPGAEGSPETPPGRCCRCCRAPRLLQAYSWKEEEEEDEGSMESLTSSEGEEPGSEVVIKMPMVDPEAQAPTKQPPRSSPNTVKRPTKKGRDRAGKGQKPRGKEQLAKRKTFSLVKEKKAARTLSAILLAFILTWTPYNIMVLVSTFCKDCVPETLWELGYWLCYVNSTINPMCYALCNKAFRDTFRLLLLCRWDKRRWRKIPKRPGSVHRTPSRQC

[2] = biological target: T2, Muscarinic acetylcholine receptor M2 (Homo sapiens, UniProt P08172); test: Tested in vitro for the binding affinity against muscarinic receptor subtype 2 (M2)
T2 sequence (P08172 whole entry): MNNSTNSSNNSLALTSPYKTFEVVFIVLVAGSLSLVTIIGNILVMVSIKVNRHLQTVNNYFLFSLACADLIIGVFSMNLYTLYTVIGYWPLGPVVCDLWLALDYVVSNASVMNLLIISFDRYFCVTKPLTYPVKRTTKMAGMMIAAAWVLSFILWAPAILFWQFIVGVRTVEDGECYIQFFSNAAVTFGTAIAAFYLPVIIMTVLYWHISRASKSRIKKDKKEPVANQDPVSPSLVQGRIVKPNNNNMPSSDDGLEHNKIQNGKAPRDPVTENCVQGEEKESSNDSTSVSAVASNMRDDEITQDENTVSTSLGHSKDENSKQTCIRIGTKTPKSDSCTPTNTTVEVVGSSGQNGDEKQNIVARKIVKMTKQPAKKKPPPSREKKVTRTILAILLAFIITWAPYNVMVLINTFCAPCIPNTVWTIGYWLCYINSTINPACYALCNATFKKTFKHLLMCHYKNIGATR

[3] = biological target: Muscarinic acetylcholine receptor M3 (Homo sapiens, UniProt P20309); test: Tested in vitro for the binding affinity against muscarinic receptor subtype 3 (M3)
Chain of Muscarinic acetylcholine receptor M3 (P20309 whole entry): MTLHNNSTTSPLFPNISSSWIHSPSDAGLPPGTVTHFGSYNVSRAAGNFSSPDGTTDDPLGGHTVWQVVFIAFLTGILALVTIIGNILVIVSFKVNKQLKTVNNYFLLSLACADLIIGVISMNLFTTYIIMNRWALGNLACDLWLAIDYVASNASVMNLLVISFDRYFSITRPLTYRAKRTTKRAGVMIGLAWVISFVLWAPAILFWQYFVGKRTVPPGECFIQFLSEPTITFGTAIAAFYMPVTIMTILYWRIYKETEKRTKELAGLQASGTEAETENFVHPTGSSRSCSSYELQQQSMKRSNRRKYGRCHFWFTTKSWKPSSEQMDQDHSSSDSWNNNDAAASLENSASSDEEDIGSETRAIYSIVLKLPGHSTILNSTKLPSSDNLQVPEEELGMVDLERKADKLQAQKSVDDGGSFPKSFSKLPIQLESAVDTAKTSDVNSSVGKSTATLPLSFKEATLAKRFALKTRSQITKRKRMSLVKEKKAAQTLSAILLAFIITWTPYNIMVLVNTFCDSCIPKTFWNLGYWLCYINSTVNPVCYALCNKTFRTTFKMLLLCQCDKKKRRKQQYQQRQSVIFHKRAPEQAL

Compound | Ki [1] [nM] | Ki [2] [nM] | Ki [3] [nM]
CCNCCCCC1CCN(CC(=O)N2c3ccccc3NC(=O)c3ccccc32)CC1 | 6.98 | 4.49 | 
CCN(CCCCC1CCN(CC(=O)N2c3ccccc3NC(=O)c3ccccc32)CC1)C(=O)c1ccc(F)cc1 | 59.4 | 32 | 46.4
CCN(CCCCC1CCN(CC(=O)N2c3ccccc3C(=O)N(C(=O)c3ccc(F)cc3)c3ccccc32)CC1)C(=O)c1ccc(F)cc1 | 129 | 46.9 | 79.1
CCN(CCCCC1CCN(CC(=O)N2c3ccccc3NC(=O)c3ccccc32)CC1)C(=O)c1cccc(I)c1 | 67.1 | 111 | 33.5
CCOC(=O)N(CC)CCCCC1CCN(CC(=O)N2c3ccccc3NC(=O)c3ccccc32)CC1 | 70 | 37.1 | 39.2
